Measured values taken from PubChem BioAssay AID1963834 (Molecular Pharmacology Branch, DTP, NCI, 2024).

Tested on: 873145-292-R-J1-PDC complex spheroid viability
Test: Anticancer human tumor 873145-292-R-J1-PDC patient-derived renal clear cell carcinoma cell line growth inhibition [POLQ]
Details: for IC50: curve of first compound; for viability, T/C: stronger effect = lower value
Method in brief: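 Three-cell-type spheroids modelling solid tumor plus stroma served as the readout system; POL inhibitors were tested individually and in combination, concentration ranges set by clinical Cmax where known.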
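Note: spheroids exposed to compounds for 7 days before viability readout.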
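Throughout, for viability, T/C: luminescence signal used as surrogate for viable cell content; 100% = DMSO vehicle control viability.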

COc1ccc([C@@H](O)c2cc(-c3ncnc4cc(N5CCOCC5)ccc34)c(F)cc2Cl)nn1 + Cc1cccc(N(C)C(=O)C2C(O)CCN2c2nc(C)cc(C(F)(F)F)c2C#N)c1
IC50 (second compound 0.0316 µM): 5.23 µM | IC50 (second compound 0.1 µM): 7.85 µM | IC50 (second compound 0.316 µM): 4.08 µM | IC50 (second compound 1 µM): 6.45 µM | IC50 (second compound 3.16 µM): 4.83 µM | IC50 (second compound 10 µM): 5.89 µM | viability, T/C (second compound 0.0316 µM, first compound 0.0316 µM): 107% | viability, T/C (second compound 0.0316 µM, first compound 0.1 µM): 92.1% | viability, T/C (second compound 0.0316 µM, first compound 0.316 µM): 81.5% | viability, T/C (second compound 0.0316 µM, first compound 1 µM): 66.6% | viability, T/C (second compound 0.0316 µM, first compound 3.16 µM): 56.9% | viability, T/C (second compound 0.0316 µM, first compound 10 µM): 42.5% | viability, T/C (second compound 0.1 µM, first compound 0.0316 µM): 105% | viability, T/C (second compound 0.1 µM, first compound 0.1 µM): 95.3% | viability, T/C (second compound 0.1 µM, first compound 0.316 µM): 75.9% | viability, T/C (second compound 0.1 µM, first compound 1 µM): 73.1% | viability, T/C (second compound 0.1 µM, first compound 3.16 µM): 64.7% | viability, T/C (second compound 0.1 µM, first compound 10 µM): 44.4% | viability, T/C (second compound 0.316 µM, first compound 0.0316 µM): 96% | viability, T/C (second compound 0.316 µM, first compound 0.1 µM): 88.5% | viability, T/C (second compound 0.316 µM, first compound 0.316 µM): 76.3% | viability, T/C (second compound 0.316 µM, first compound 1 µM): 65.2% | viability, T/C (second compound 0.316 µM, first compound 3.16 µM): 55.8% | viability, T/C (second compound 0.316 µM, first compound 10 µM): 37.5% | viability, T/C (second compound 1 µM, first compound 0.0316 µM): 112% | viability, T/C (second compound 1 µM, first compound 0.1 µM): 88.2% | viability, T/C (second compound 1 µM, first compound 0.316 µM): 85.6% | viability, T/C (second compound 1 µM, first compound 1 µM): 72.5% | viability, T/C (second compound 1 µM, first compound 3.16 µM): 56.1% | viability, T/C (second compound 1 µM, first compound 10 µM): 45% | viability, T/C (second compound 3.16 µM, first compound 0.0316 µM): 93.5% | viability, T/C (second compound 3.16 µM, first compound 0.1 µM): 85.1% | viability, T/C (second compound 3.16 µM, first compound 0.316 µM): 91% | viability, T/C (second compound 3.16 µM, first compound 1 µM): 71.6% | viability, T/C (second compound 3.16 µM, first compound 3.16 µM): 57.4% | viability, T/C (second compound 3.16 µM, first compound 10 µM): 39.2% | viability, T/C (second compound 10 µM, first compound 0.0316 µM): 96.8% | viability, T/C (second compound 10 µM, first compound 0.1 µM): 82.1% | viability, T/C (second compound 10 µM, first compound 0.316 µM): 80.2% | viability, T/C (second compound 10 µM, first compound 1 µM): 71.2% | viability, T/C (second compound 10 µM, first compound 3.16 µM): 58.1% | viability, T/C (second compound 10 µM, first compound 10 µM): 42.4%

CC(=O)O[C@H]1C(=O)[C@@]2(C)[C@H]([C@H](OC(=O)c3ccccc3)[C@]3(O)C[C@H](OC(=O)[C@H](O)[C@@H](NC(=O)c4ccccc4)c4ccccc4)C(C)=C1C3(C)C)[C@]1(OC(C)=O)CO[C@@H]1C[C@@H]2O + Cc1cccc(N(C)C(=O)C2C(O)CCN2c2nc(C)cc(C(F)(F)F)c2C#N)c1
IC50 (second compound 0.0316 µM): > 3 µM | IC50 (second compound 0.1 µM): > 3 µM | IC50 (second compound 0.316 µM): > 3 µM | IC50 (second compound 1 µM): > 3 µM | IC50 (second compound 3.16 µM): > 3 µM | IC50 (second compound 10 µM): > 3 µM | viability, T/C (second compound 0.0316 µM, first compound 0.00949 µM): 92.4% | viability, T/C (second compound 0.0316 µM, first compound 0.03 µM): 75.9% | viability, T/C (second compound 0.0316 µM, first compound 0.0949 µM): 74.7% | viability, T/C (second compound 0.0316 µM, first compound 0.3 µM): 69.1% | viability, T/C (second compound 0.0316 µM, first compound 0.949 µM): 72.8% | viability, T/C (second compound 0.0316 µM, first compound 3 µM): 74.9% | viability, T/C (second compound 0.1 µM, first compound 0.00949 µM): 92% | viability, T/C (second compound 0.1 µM, first compound 0.03 µM): 99% | viability, T/C (second compound 0.1 µM, first compound 0.0949 µM): 67% | viability, T/C (second compound 0.1 µM, first compound 0.3 µM): 77.7% | viability, T/C (second compound 0.1 µM, first compound 0.949 µM): 68.6% | viability, T/C (second compound 0.1 µM, first compound 3 µM): 66.3% | viability, T/C (second compound 0.316 µM, first compound 0.00949 µM): 94.5% | viability, T/C (second compound 0.316 µM, first compound 0.03 µM): 82.4% | viability, T/C (second compound 0.316 µM, first compound 0.0949 µM): 76.2% | viability, T/C (second compound 0.316 µM, first compound 0.3 µM): 74.1% | viability, T/C (second compound 0.316 µM, first compound 0.949 µM): 76.5% | viability, T/C (second compound 0.316 µM, first compound 3 µM): 70.3% | viability, T/C (second compound 1 µM, first compound 0.00949 µM): 79.7% | viability, T/C (second compound 1 µM, first compound 0.03 µM): 84.3% | viability, T/C (second compound 1 µM, first compound 0.0949 µM): 81.8% | viability, T/C (second compound 1 µM, first compound 0.3 µM): 77.8% | viability, T/C (second compound 1 µM, first compound 0.949 µM): 73.3% | viability, T/C (second compound 1 µM, first compound 3 µM): 69.3% | viability, T/C (second compound 3.16 µM, first compound 0.00949 µM): 84.7% | viability, T/C (second compound 3.16 µM, first compound 0.03 µM): 85.6% | viability, T/C (second compound 3.16 µM, first compound 0.0949 µM): 72.5% | viability, T/C (second compound 3.16 µM, first compound 0.3 µM): 71.5% | viability, T/C (second compound 3.16 µM, first compound 0.949 µM): 80.3% | viability, T/C (second compound 3.16 µM, first compound 3 µM): 80.4% | viability, T/C (second compound 10 µM, first compound 0.00949 µM): 75.4% | viability, T/C (second compound 10 µM, first compound 0.03 µM): 80.3% | viability, T/C (second compound 10 µM, first compound 0.0949 µM): 75.8% | viability, T/C (second compound 10 µM, first compound 0.3 µM): 65.9% | viability, T/C (second compound 10 µM, first compound 0.949 µM): 75.6% | viability, T/C (second compound 10 µM, first compound 3 µM): 71.2%
